{"source": "ChEMBL document CHEMBL4813950", "about": "“Comparing the efficacy and selectivity of Ck2 inhibitors. A phosphoproteomics approach” (Eur J Med Chem, 2021)", "assay_type_in_all_cases": "cell-based", "key": {"[1]": {"molecular_target": "Nucleolar protein 56 (Mus musculus) (UniProt Q9D6Z1)", "experiment": "Inhibition of Nop56 in mouse C2C12 cells assessed as reduction in phospho-sites occupancy at 4 uM after 5 hrs by SILAC based LC-MS/MS analysis relative to control"}, "[2]": {"molecular_target": "Nucleoprotein TPR (Mus musculus) (UniProt F6ZDS4)", "experiment": "Inhibition of nucleoprotein TPR in mouse C2C12 cells assessed as reduction in phospho-sites occupancy at 4 uM after 5 hrs by SILAC based LC-MS/MS analysis relative to control"}, "[3]": {"molecular_target": "Bcl-2-associated transcription factor 1 (Mus musculus) (UniProt Q8K019)", "experiment": "Inhibition of Bcl-2-associated transcription factor 1 in mouse C2C12 cells assessed as reduction in phospho-sites occupancy at 4 uM after 5 hrs by SILAC based LC-MS/MS analysis relative to control"}, "[4]": {"molecular_target": "DNA topoisomerase 2-beta (Mus musculus) (UniProt Q64511)", "experiment": "Inhibition of DNA topoisomerase 2-beta in mouse C2C12 cells assessed as reduction in phospho-sites occupancy at 4 uM after 5 hrs by SILAC based LC-MS/MS analysis relative to control"}, "[5]": {"molecular_target": "Dual E2 ubiquitin-conjugating enzyme/E3 ubiquitin-protein ligase BIRC6 (Mus musculus) (UniProt O88738)", "experiment": "Inhibition of Birc6 in mouse C2C12 cells assessed as reduction in phospho-sites occupancy at 4 uM after 5 hrs by SILAC based LC-MS/MS analysis relative to control"}, "[6]": {"molecular_target": "Serine/threonine-protein phosphatase 6 regulatory subunit 3 (Mus musculus) (UniProt Q922D4)", "experiment": "Inhibition of Ppp6r3 in mouse C2C12 cells assessed as reduction in phospho-sites occupancy at 4 uM after 5 hrs by SILAC based LC-MS/MS analysis relative to control"}, "[7]": {"molecular_target": "Small ubiquitin-related modifier 1 (Mus musculus) (UniProt P63166)", "experiment": "Inhibition of Sumo1 in mouse C2C12 cells assessed as reduction in phospho-sites occupancy at 4 uM after 5 hrs by SILAC based LC-MS/MS analysis relative to control"}, "[8]": {"molecular_target": "Centrosomal protein of 170 kDa (Mus musculus) (UniProt Q6A065)", "experiment": "Inhibition of Cep170 in mouse C2C12 cells assessed as reduction in phospho-sites occupancy at 4 uM after 5 hrs by SILAC based LC-MS/MS analysis relative to control"}, "[9]": {"molecular_target": "Zinc finger and BTB domain-containing protein 7A (Mus musculus) (UniProt O88939)", "experiment": "Inhibition of Zbtb7a in mouse C2C12 cells assessed as reduction in phospho-sites occupancy at 4 uM after 5 hrs by SILAC based LC-MS/MS analysis relative to control"}, "[10]": {"molecular_target": "Chaperone Ric-8A (Mus musculus) (UniProt Q3TIR3)", "experiment": "Inhibition of Ric8a in mouse C2C12 cells assessed as reduction in phospho-sites occupancy at 4 uM after 5 hrs by SILAC based LC-MS/MS analysis relative to control"}, "Striatin (Mus musculus)": {"molecular_target": "Striatin (Mus musculus) (UniProt O55106)", "experiment": "Inhibition of Stria-tin in mouse C2C12 cells assessed as reduction in phospho-sites occupancy at 4 uM after 5 hrs by SILAC based LC-MS/MS analysis relative to control"}, "[11]": {"molecular_target": "Sequestosome-1 (Mus musculus) (UniProt Q64337)", "experiment": "Inhibition of Sequestosome-1 in mouse C2C12 cells assessed as reduction in phospho-sites occupancy at 4 uM after 5 hrs by SILAC based LC-MS/MS analysis relative to control"}, "[12]": {"molecular_target": "LIM domain and actin-binding protein 1 (Mus musculus) (UniProt Q9ERG0)", "experiment": "Inhibition of Lima1 in mouse C2C12 cells assessed as reduction in phospho-sites occupancy at 4 uM after 5 hrs by SILAC based LC-MS/MS analysis relative to control"}, "[13]": {"molecular_target": "Rho GTPase-activating protein 35 (Mus musculus) (UniProt Q91YM2)", "experiment": "Inhibition of Arhgap35 in mouse C2C12 cells assessed as reduction in phospho-sites occupancy at 4 uM after 5 hrs by SILAC based LC-MS/MS analysis relative to control"}, "[14]": {"molecular_target": "Acetyl-CoA carboxylase 1 (Mus musculus) (UniProt Q5SWU9)", "experiment": "Inhibition of Acetyl-CoA carboxylase 1 in mouse C2C12 cells assessed as reduction in phospho-sites occupancy at 4 uM after 5 hrs by SILAC based LC-MS/MS analysis relative to control"}, "[15]": {"molecular_target": "Protein transport protein Sec31A (Mus musculus) (UniProt Q3UPL0)", "experiment": "Inhibition of Sec31a in mouse C2C12 cells assessed as reduction in phospho-sites occupancy at 4 uM after 5 hrs by SILAC based LC-MS/MS analysis relative to control"}, "[16]": {"molecular_target": "Fermitin family homolog 2 (Mus musculus) (UniProt Q8CIB5)", "experiment": "Inhibition of Fermt2 in mouse C2C12 cells assessed as reduction in phospho-sites occupancy at 4 uM after 5 hrs by SILAC based LC-MS/MS analysis relative to control"}, "[17]": {"molecular_target": "Desmoyokin (Mus musculus) (UniProt Q61484)", "experiment": "Inhibition of AHNAK in mouse C2C12 cells assessed as reduction in phospho-sites occupancy at 4 uM after 5 hrs by SILAC based LC-MS/MS analysis relative to control"}, "[18]": {"molecular_target": "Dihydropyrimidinase-related protein 3 (Mus musculus) (UniProt Q62188)", "experiment": "Inhibition of Dihydropyrimidinase-related protein 3 in mouse C2C12 cells assessed as reduction in phospho-sites occupancy at 4 uM after 5 hrs by SILAC based LC-MS/MS analysis relative to control"}, "[19]": {"molecular_target": "1-phosphatidylinositol 4,5-bisphosphate phosphodiesterase delta-3 (Mus musculus) (UniProt Q8K2J0)", "experiment": "Inhibition of Plcd3 in mouse C2C12 cells assessed as reduction in phospho-sites occupancy at 4 uM after 5 hrs by SILAC based LC-MS/MS analysis relative to control"}, "[20]": {"molecular_target": "Tight junction protein 2 (Mus musculus) (UniProt Q9Z0U1)", "experiment": "Inhibition of Tjp2 in mouse C2C12 cells assessed as reduction in phospho-sites occupancy at 4 uM after 5 hrs by SILAC based LC-MS/MS analysis relative to control"}, "[21]": {"molecular_target": "Cyclin-dependent kinase 4 (Mus musculus) (UniProt P30285)", "experiment": "Inhibition of Cdk4 in mouse C2C12 cells assessed as reduction in phospho-sites occupancy at 4 uM after 5 hrs by SILAC based LC-MS/MS analysis relative to control"}, "[22]": {"molecular_target": "Phosducin-like protein 3 (Mus musculus) (UniProt Q8BVF2)", "experiment": "Inhibition of Phosducin-like protein 3 in mouse C2C12 cells assessed as reduction in phospho-sites occupancy at 4 uM after 5 hrs by SILAC based LC-MS/MS analysis relative to control"}, "[23]": {"molecular_target": "WASH complex subunit 2 (Mus musculus) (UniProt Q6PGL7)", "experiment": "Inhibition of Washc2 in mouse C2C12 cells assessed as reduction in phospho-sites occupancy at 4 uM after 5 hrs by SILAC based LC-MS/MS analysis relative to control"}, "[24]": {"molecular_target": "Casein kinase 2 (Mus musculus) (UniProt Q60737+P67871+O54833+Q8CH19)", "experiment": "Inhibition of CK2 in mouse C2C12 cells assessed as reduction in Akt phosphorylation at S129 residues at 1 to 4 uM by Western blot analysis", "conditions": "dose 1-4 µM"}}, "note": "Calls of active or inactive are those of the source. No cut-off for these calls is given here.", "data": [{"smiles": "COc1cc(/C=N/n2c(SC)nnc2-c2ccccc2)c(Br)cc1O", "values": [{"measurement": "fold change (FC)", "setting": "[1]", "value": 1.5}, {"measurement": "fold change (FC)", "setting": "[2]", "value": 1.51}, {"measurement": "fold change (FC)", "setting": "[3]", "value": 1.58}, {"measurement": "fold change (FC)", "setting": "[4]", "value": 1.6}, {"measurement": "fold change (FC)", "setting": "[5]", "value": 1.62}, {"measurement": "fold change (FC)", "setting": "[6]", "value": 1.75}, {"measurement": "fold change (FC)", "setting": "[7]", "value": 1.75}, {"measurement": "fold change (FC)", "setting": "[8]", "value": 1.86}, {"measurement": "fold change (FC)", "setting": "[9]", "value": 1.89}, {"measurement": "fold change (FC)", "setting": "[10]", "value": 1.93}, {"measurement": "fold change (FC)", "setting": "Striatin (Mus musculus)", "value": 2.25}, {"measurement": "fold change (FC)", "setting": "[11]", "value": 2.35}, {"measurement": "fold change (FC)", "setting": "[12]", "value": 2.39}, {"measurement": "fold change (FC)", "setting": "[13]", "value": 2.58}, {"measurement": "fold change (FC)", "setting": "[14]", "value": 2.73}, {"measurement": "fold change (FC)", "setting": "[15]", "value": 2.98}, {"measurement": "fold change (FC)", "setting": "[16]", "value": 3.05}, {"measurement": "fold change (FC)", "setting": "[17]", "value": 3.22}, {"measurement": "fold change (FC)", "setting": "[18]", "value": 3.25}, {"measurement": "fold change (FC)", "setting": "[19]", "value": 3.31}, {"measurement": "fold change (FC)", "setting": "[20]", "value": 3.31}, {"measurement": "fold change (FC)", "setting": "[21]", "value": 3.97}, {"measurement": "fold change (FC)", "setting": "[22]", "value": 4.01}, {"measurement": "fold change (FC)", "setting": "[23]", "value": 4.17}, {"measurement": "inhibition", "setting": "[24]", "value": "Active"}]}]}
